Here are results for 48 compounds from patent US10202404B2, “Polycyclic pyridone derivative having integrase inhibitory activity” (Shionogi & Co., Ltd., priority 2014, dated 2019).

In one experiment the test system is HIV. Put plainly: Anti-HIV activity (MT-4 cells, MTT). In kind it is cell-based. The following applies: 50% HIV inhibition concentration; MT-4 cells infected with HIV, incubated 4 days, MTT readout. Here is the method: Previously, a series of two-fold dilution on test samples were carried out in a 96-well plate (50 μL/well). Two plates were made for measuring anti-HIV activity and measuring cytotoxicity. For each agent, measurement in duplicate was carried out. An MT-4 cell suspension of 2.5×10^5/mL was dispensed at 100 μL/well onto the 96-well plate containing the test samples. An HIV virus solution was dispensed at 50 μL/well onto the 96-well plate containing the test samples and the cell. To the plate for measuring cytotoxicity, a culture solution was dispensed at 50 μL/well. It was mixed by a plate mixer, and then incubated in a CO2 incubator for 4 days. […] Thirty microliters of a MTT (3-(4,5-dimethylthiazol-2-yl)-2,5-diphenyltetrazolium bromide) solution was dispensed to each well.
A reaction was allowed to occur in a CO2 incubator for an hour. From each well, 150 μL of the supernatant was removed such that cells are not sucked. One-hundred and fifty microliters of a cell lysis solution was added thereto, and then it was mixed well by a plate mixer until the whole cells are lysed. The mixed 96-well plates were measured by a microplate reader at two wavelengths, 560 nm/690 nm. Based on the following calculation formula, 50% HIV inhibition concentration (EC50) was calculated. EC50=10Z Z=(50%−Low %)/(High %−Low %)×{log(High conc.)−log(Low conc.)}+log(Low conc.) Based on the following calculation formula, 50% cytotoxic concentration (CC50) was calculated. CC50=10Z Z=(50%−Low %)/(High %−Low %)×{log(High conc.)−log(Low conc.)}+log(Low conc.) Based on the following calculation formula, selectivity index (ST) was calculated. SI=CC50/EC50 (Result)
For `CCN1CN(CCOC)C(=O)c2c(O)c(=O)c(-c3ncc(Cc4ccc(F)cc4F)s3)cn21` [Compound C-10], the EC50 was found to be 5.8 nM.
The compound `O=C1c2c(O)c(=O)c(-c3nnc(Cc4ccc(F)cc4F)s3)cn2C[C@@H]2CCCCN12` [Compound B-1] came in with an EC50 of 2.9 nM. This EC50 lies about 2-fold lower than the previous one.

The same experiment, now with this note: Human immunodeficiency virus 1, MT4, 96 h; 50% HIV inhibition concentration; MT-4 cells infected with HIV, incubated 4 days, MTT readout.
Regarding `O=C1c2c(O)c(=O)c(-c3nnc(Cc4ccc(F)cc4F)s3)cn2C[C@H]2OCC[C@@H](C(F)(F)F)N12` [Compound A-70], the concentration giving a half-maximal response (EC50) came to 8 nM.
Same read-out and setting: to `O=C1c2c(O)c(=O)c(-c3ncc(Cc4ccc(F)cc4F)s3)cn2C[C@@H]2CCCN12` [Compound B-13] belongs 7.7 nM; to `C[C@@H]1CCO[C@H]2Cn3cc(-c4ncc(Cc5cccc(Cl)c5F)s4)c(=O)c(O)c3C(=O)N12` [Compound A-1], 7.8 nM; to `COCCN1Cn2cc(-c3nnc(Cc4ccc(F)cc4F)s3)c(=O)c(O)c2C(=O)N1C(C)C` [Compound C-22], 1.3 nM.
`O=C1c2c(O)c(=O)c(-c3nnc(Cc4ccc(F)cc4F)s3)cn2C[C@H]2CCCCN12` [Compound B-2] displayed an EC50 of 3.9 nM.
In turn, `CCN1CN([C@H](C)C(F)(F)F)C(=O)c2c(O)c(=O)c(-c3nnc(Cc4cccc(Cl)c4F)s3)cn21` [Compound C-6] displayed an EC50 of 5.7 nM.
On to `C[C@@H]1CCO[C@H]2Cn3cc(-c4nnc(Cc5c(Cl)ccc(Cl)c5F)s4)c(=O)c(O)c3C(=O)N12` [Compound A-27], for which the EC50 turned out to be 3.5 nM. This EC50 lies about 1.6-fold lower than the previous one.
The same measure, in the same setting: to `C[C@@H]1CO[C@H]2Cn3cc(-c4nnc(Cc5cccc(Cl)c5F)s4)c(=O)c(O)c3C(=O)N12` [Compound A-20] belongs 3 nM; to `C[C@@H]1CCO[C@H]2Cn3cc(-c4cc(Cc5ccc(F)cc5F)n(C)n4)c(=O)c(O)c3C(=O)N12` [Compound A-79], 15 nM.
As for `COC[C@@H]1CCO[C@H]2Cn3cc(-c4nnc(Cc5ccc(F)cc5F)s4)c(=O)c(O)c3C(=O)N12` [Compound A-67], the EC50 stood at 4.2 nM. This EC50 is about 3.6-fold lower than that of the compound before.
Compound `O=C1c2c(O)c(=O)c(-c3nnc(Cc4ccc(F)cc4F)s3)cn2C[C@@H]2COCCN12` [Compound B-10] displayed an EC50 of 10 nM.
On the same count and under the same terms, to `C[C@H]1CO[C@@H]2Cn3cc(-c4cnc(Cc5ccc(F)cc5F)s4)c(=O)c(O)c3C(=O)N12` [Compound A-42] belongs 10 nM.
As to `COCc1cc(F)cc(F)c1Cc1nnc(-c2cn3c(c(O)c2=O)C(=O)N2[C@H](C)CCO[C@H]2C3)s1` [Compound A-75], a half-maximal response (EC50) required 10 nM.
Regarding `COCCN1Cn2cc(-c3nnc(Cc4ccc(F)cc4F)s3)c(=O)c(O)c2C(=O)N1C` [Compound C-26], the EC50 came to 1.5 nM.
In turn, `O=C1c2c(O)c(=O)c(-c3nnc(Cc4ccc(F)cc4F)s3)cn2C[C@H]2COCCN12` [Compound B-11] returned an EC50 of 5.9 nM.
On to `C[C@@H]1CO[C@H]2Cn3cc(-c4nnc(Cc5cccc(Cl)c5F)s4)c(=O)c(O)c3C(=O)N2C1` [Compound A-22], for which the EC50 is 1.7 nM.
Regarding `C[C@@H]1CO[C@H]2Cn3cc(-c4ncc(Cc5ccc(F)cc5F)s4)c(=O)c(O)c3C(=O)N2C1` [Compound A-8], the EC50 worked out at 3.5 nM.
Take `COC[C@H]1CCN2C(=O)c3c(O)c(=O)c(-c4nnc(Cc5ccc(F)cc5F)s4)cn3C[C@H]2O1` [Compound A-69]: the EC50 amounted to 5.1 nM. This EC50 and that of the compound before are within 1.5-fold of each other.
The compound `C[C@@H]1CCO[C@H]2Cn3cc(-c4nnc(Cc5cc(F)c(F)cc5F)s4)c(=O)c(O)c3C(=O)N12` [Compound A-24] had an EC50 of 4.2 nM.
The compound `CCN1CN(CCOC)C(=O)c2c(O)c(=O)c(-c3nnc(Cc4ccc(F)cc4F)s3)cn21` [Compound C-2] gave an EC50 of 1.4 nM.
Turning to `C[C@H]1CO[C@@H]2Cn3cc(-c4ncc(Cc5cccc(Cl)c5F)s4)c(=O)c(O)c3C(=O)N12` [Compound A-2], the midpoint of the response, the EC50, lay at 2.5 nM.
`C[C@@H]1CCO[C@H]2Cn3cc(-c4cn(Cc5ccc(F)cc5F)nn4)c(=O)c(O)c3C(=O)N12` [Compound A-72] showed an EC50 of 8.5 nM.
Still for that read-out and setting: to `COc1c(F)ccc(Cc2nnc(-c3cn4c(c(O)c3=O)C(=O)N3[C@H](C)CCO[C@H]3C4)s2)c1F` [Compound A-32] belongs 12 nM; to `C[C@@H]1CCO[C@H]2Cn3cc(-c4cc(Cc5ccc(F)cc5F)sn4)c(=O)c(O)c3C(=O)N12` [Compound A-71], 9.3 nM; to `C[C@H]1CCN(C2CC2)[C@@H]2Cn3cc(-c4nnc(Cc5cccc(Cl)c5F)s4)c(=O)c(O)c3C(=O)N12` [Compound A-56], 4 nM.
In turn, `COC(=O)OCOc1c2n(cc(-c3nnc(Cc4ccc(F)cc4F)s3)c1=O)C[C@@H]1OCC[C@@H](C)N1C2=O` [Compound D-2] registered an EC50 of 8 nM. This EC50 is about 2-fold higher than that of the compound before.
`COCCN1CN(C)n2cc(-c3ncc(Cc4ccc(F)cc4F)s3)c(=O)c(O)c2C1=O` [Compound C-13] gave an EC50 of 2.7 nM.
On the same count and under the same terms, to `CCN1NCn2cc(-c3nnc(Cc4ccc(F)cc4F)s3)c(=O)c(O)c2C1=O` [Compound C-25] belongs 2.2 nM; to `C[C@@H]1CCO[C@H]2Cn3cc(-c4ncc(Cc5c(F)cc(F)cc5F)s4)c(=O)c(O)c3C(=O)N12` [Compound A-12], 4.9 nM; to `O=C1c2c(O)c(=O)c(-c3nnc(Cc4ccc(F)cc4F)s3)cn2C[C@H]2O[C@@H]3CC[C@@H](C3)N12` [Compound A-65], 4.2 nM.
The same measure, in the same setting: to `CCN1C(=O)c2c(O)c(=O)c(-c3nnc(Cc4ccc(F)cc4F)s3)cn2CN1C` [Compound C-23] belongs 1.2 nM.
As to `C[C@@H]1CCO[C@H]2Cn3cc(-c4nnc(Cc5c(F)ccc(Cl)c5F)s4)c(=O)c(O)c3C(=O)N12` [Compound A-25], the midpoint of the response, the EC50, lay at 3.4 nM.
The compound `C[C@H]1N2C(=O)c3c(O)c(=O)c(-c4nnc(Cc5ccc(F)cc5F)s4)cn3C[C@@H]2OCC12CC2` [Compound A-57] showed an EC50 of 1.7 nM.
Same read-out and setting: to `CCN1CN(CCCOC)C(=O)c2c(O)c(=O)c(-c3nnc(Cc4cccc(Cl)c4F)s3)cn21` [Compound C-8] belongs 2.4 nM; to `C[C@@H]1CCO[C@H]2Cn3cc(-c4cn(Cc5ccc(F)cc5F)cn4)c(=O)c(O)c3C(=O)N12` [Compound A-64], 1.6 nM.
Consider `C[C@@H]1CCO[C@H]2Cn3cc(-c4nnc(Cc5ccc(F)c(Cl)c5)s4)c(=O)c(O)c3C(=O)N12` [Compound A-33], for which the EC50 was found to be 2.5 nM.
On the same count and under the same terms, to `C[C@@H]1CCO[C@@H]2Cn3cc(-c4ncc(Cc5ccc(F)cc5F)s4)c(=O)c(O)c3C(=O)N12` [Compound A-13] belongs 6 nM.
Regarding `COCCOC(=O)Oc1c2n(cc(-c3nnc(Cc4ccc(F)cc4F)s3)c1=O)C[C@@H]1OCC[C@@H](C)N1C2=O` [Compound D-4], the EC50 is 4.1 nM. This EC50 and that of the compound before are within 1.5-fold of each other.
The compound `C[C@@H]1CO[C@H]2Cn3cc(-c4ncc(Cc5ccc(F)cc5F)s4)c(=O)c(O)c3C(=O)N12` [Compound A-7] registered an EC50 of 6.5 nM. This EC50 is about 1.6-fold higher than that of the compound before.
Consider `C[C@@H]1CO[C@H]2Cn3cc(-c4nnc(Cc5ccc(F)cc5F)s4)c(=O)c(O)c3C(=O)N2C1` [Compound A-21], for which the EC50 was determined as 1 nM.
The compound `O=C1c2c(O)c(=O)c(-c3ncc(Cc4cccc(Cl)c4F)s3)cn2C[C@@H]2CCCCN12` [Compound B-19] displayed an EC50 of 18 nM. This EC50 is about 18-fold higher than that of the compound before.
Same read-out and setting: to `O=C1c2c(O)c(=O)c(-c3nnc(Cc4ccc(F)cc4F)s3)cn2C[C@@H]2C[C@@H](F)CCN12` [Compound B-21] belongs 4 nM; to `Cc1nc(-c2cn3c(c(O)c2=O)C(=O)N2[C@H](C)CCO[C@H]2C3)cn1Cc1ccc(F)cc1F` [Compound A-59], 9.5 nM; to `COCCN1CN(C)n2cc(-c3nnc(Cc4ccc(F)cc4F)s3)c(=O)c(O)c2C1=O` [Compound C-3], 1.1 nM.
Turning to `COC[C@@H]1CCN2C(=O)c3c(O)c(=O)c(-c4nnc(Cc5ccc(F)cc5F)s4)cn3C[C@@H]2O1` [Compound A-68], the midpoint of the response, the EC50, lay at 4.6 nM. Against the preceding compound, the EC50 is about 4.2-fold higher.
In the case of `C[C@H]1CO[C@@H]2Cn3cc(-c4nnc(Cc5ccc(F)cc5F)s4)c(=O)c(O)c3C(=O)N12` [Compound A-15], the EC50 turned out to be 1.1 nM.

The EC50 is the midpoint of the concentration-response curve. A high value points to weaker potency.
